SMILES strings stand for the structures.

The data set in a line: log P by HPLC-MS. It is filed as physicochemical.
`Cn1cnc2cc(C(F)(F)F)nnc21` [Example 5, 7-methyl-3-(trifluoromethyl)-7H-imidazo[4,5-c]pyridazine] showed a chromatographic logP of 0.95. To `Cn1c(-c2nc(Br)ccc2F)nc2cc(C(F)(F)F)ncc21` [Example 4, 2-(6-bromo-3-fluoropyridin-2-yl)-3-methyl-6-(trifluoromethyl)-3H-imidazo[4,5-c]pyridine] belongs 2.51; to `COC(=O)c1ccc(F)c(-c2nc3cc(C(F)(F)F)ncc3n2C)n1` [Example 3, methyl 5-fluoro-6-[3-methyl-6-(trifluoromethyl)-3H-imidazo[4,5-c]pyridin-2-yl]pyridine-2-carboxylate], 2.03. With `Cn1c(-c2nc(Br)ccc2F)nc2cc(C(F)(F)F)nnc21` [Example 8, 6-(6-bromo-3-fluoropyridin-2-yl)-7-methyl-3-(trifluoromethyl)-7H-imidazo[4,5-c]pyridazine] the figure was 2.58; with `Cn1c(-c2nc(Cl)ccc2F)nc2cc(C(F)(F)F)nnc21` [Example 6, 6-(6-chloro-3-fluoropyridin-2-yl)-7-methyl-3-(trifluoromethyl)-7H-imidazo[4,5-c]pyridazine], 2.46. The compound `COC(=O)c1ccc(F)c(-c2nc3cc(C(F)(F)F)nnc3n2C)n1` [Example 7, methyl 5-fluoro-6-[7-methyl-3-(trifluoromethyl)-7H-imidazo[4,5-c]pyridazin-6-yl]pyridine-2-carboxylate] had a chromatographic logP of 2.09. With `Cn1c(-c2nc(Cl)ccc2F)nc2cc(C(F)(F)F)ncc21` [Example 2, 2-(6-chloro-3-fluoropyridin-2-yl)-3-methyl-6-(trifluoromethyl)-3H-imidazo[4,5-c]pyridine] the figure was 2.38.

As a reminder, the chromatographic logP is a lipophilicity value derived from retention on a column.

For the origin of these results see patent publication US10875858B2, “Process for preparing halogenated pyridine derivatives” (Bayer CropScience Aktiengesellschaft, priority 2016, dated 2020).
